Target: T1, PpBBE1 (Physcomitrium patens, UniProt A0A2K1JP57, D396N)
T1 construct: gene PHYPA_015719; full-length precursor 501 residues; native signal peptide (predicted 1-30) removed; C-terminal octahistidine tag; secreted from Komagataella phaffii KM71H (pPICZalpha, PDI coexpressed); ca. 54 kDa; monomer; bicovalent FAD
Experiment: X-ray crystal structure, […] A
Type: binding
Details: covalent; bicovalent via 8alpha to H111 and C6 to C172

T1 sequence (A0A2K1JP57 entry or part of it D396N): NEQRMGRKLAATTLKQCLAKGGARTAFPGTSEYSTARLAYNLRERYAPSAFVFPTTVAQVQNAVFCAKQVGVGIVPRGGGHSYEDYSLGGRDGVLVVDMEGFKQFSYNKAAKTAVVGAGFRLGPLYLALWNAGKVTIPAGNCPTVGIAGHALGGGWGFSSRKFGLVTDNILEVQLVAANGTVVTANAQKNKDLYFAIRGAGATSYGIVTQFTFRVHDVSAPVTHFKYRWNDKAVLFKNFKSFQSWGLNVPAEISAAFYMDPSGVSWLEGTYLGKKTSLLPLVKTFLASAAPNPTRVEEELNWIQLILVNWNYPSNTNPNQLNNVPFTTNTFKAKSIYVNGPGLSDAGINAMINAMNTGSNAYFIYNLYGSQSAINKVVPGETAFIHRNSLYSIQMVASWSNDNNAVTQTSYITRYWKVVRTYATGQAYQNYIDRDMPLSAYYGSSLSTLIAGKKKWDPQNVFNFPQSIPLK

Cc1cc2nc3c(=O)[nH]c(=O)nc-3n(C[C@H](O)[C@H](O)[C@H](O)COP(=O)(O)OP(=O)(O)OC[C@H]3O[C@@H](n4cnc5c(N)ncnc54)[C@H](O)[C@@H]3O)c2cc1C [FAD]
X-ray crystal structure, 2.6 A: confirmed the bicovalent linkage of the flavin cofactor

Source: PMC6001459 (The Febs Journal, 2018)
